Several values for one entry are separate records, joined by “and”; a condition that tells them apart may be missing. Identical values can stand only once.
Test system: cotton embryogenic callus
Assay: β-glucuronidase (GUS) assay of embryogenic cotton callus after cocultivation with Agrobacterium strain A3311
Format: cell-based, cotton (variety Coker 312)
Procedure: Embryogenic cotton callus was obtained in the following way: Cotton seeds of variety Coker 312 were disinfected using a 12% sodium hypochloride solution, and germinated individually in tubes containing a solution of gelrite 2/g/l H2O and 0.94 g/l MgCl2.6H2O. The tubes were incubated in the dark at 27-28° C. After 10 to 14 days, seedlings are collected, the hypocotyls of the seedlings were cut in segments of about 1 cm and incubated on medium 104 (without plant hormones) at 28° C. under a regime of 16 hr light and 8 hr dark. Every three weeks, the segments were transferred to fresh medium, until embryogenic callus was formed (usually after about 9 weeks). This callus was removed from the explants and cultured further on medium 104.
Agrobacterium strain A 3311 cells were grown on AB medium or MAG medium, collected and resuspended in M104 liquid medium, pH 5.2 (either with or without 100 μM acetosyringone (AS)) or MAG medium at a density of about 1×10^9 CFU/ml. Small embryogenic cotton callus clumps were collected, washed in liquid medium 104 at pH 5.2, and immersed in the Agrobacterium suspension for about 20 minutes. The infected embryogenic calli were than transferred to solid medium 104, pH 5.2, supplemented with either 100 μM AS, 0.5 g/l casamino acids, 100 μM AS and 0.5 g/l casamino acids, or not supplemented at all, and incubated for cocultivation during 4 days in the dark at about 24° C.
After the cocultivation phase, the callus clumps were transferred to selective medium 104 supplemented with 50 mg/l kanamycin and 500mg/l Claforan.
At different time intervals after the cocultivation, samples of embryogenic callus were collected and subjected to a β-glucuronidase assay, using a chromogenic substrate as described by Jefferson et al. (1987; Plant Mol. Biol. Rep. 5: 387-405). The results of these tests are summarized in table 1, and are expressed as the percentage of calli expressing GUS-positive spots.
As a control, experiments were included using tobacco leaf discs co-cultivated with A3311, using mock-inoculated tobacco leaf discs or using mock-inoculated embryogenic cotton callus.

[1] = 100 μM AS only in A3311 resuspension medium M104, cocultivation medium M104 not supplemented
[2] = A3311 resuspended in M104 + 100 μM AS, supplement in cocultivation medium M104
[3] = A3311 resuspended in M104, supplement in cocultivation medium M104
[4] = A3311 resuspended in MAG, supplement in cocultivation medium M104
[5] = no Agrobacterium (mock-inoculated), supplement in cocultivation medium M104

percentage of calli expressing GUS-positive spots, 8 weeks [1]: Dead | need for inclusion during Agrobacterium mediated transformation of embryogenic callus (both for transient expression and after prolonged cultivation of the transformed calli): required | percentage of calli expressing GUS-positive spots, 8 weeks [5]: Dead
Structure (SMILES): COc1cc(C(C)=O)cc(OC)c1O [AS, 3,5-dimethoxy-4-hydroxyacetophenone]
percentage of calli expressing GUS-positive spots, 4 weeks [1]: 0% | percentage of calli expressing GUS-positive spots, 6 weeks [1]: 0% | percentage of calli expressing GUS-positive spots, 4 days [1]: 0% | percentage of calli expressing GUS-positive spots, 11 days [1]: 0% | percentage of calli expressing GUS-positive spots, 8 weeks [2]: 90% and 50% | percentage of calli expressing GUS-positive spots, 11 days [2]: 70% and 90% | percentage of calli expressing GUS-positive spots, 6 weeks [3]: 15% and 25% | percentage of calli expressing GUS-positive spots, 8 weeks [3]: 20% | percentage of calli expressing GUS-positive spots, 11 days [3]: 50% and 90% | percentage of calli expressing GUS-positive spots, 4 days (A3311 resuspended in MAG, supplement in cocultivation medium M104 (100 μM AS and/or 0.5 g/l cas. acids)): 90% | percentage of calli expressing GUS-positive spots, 4 weeks [4]: 50% | percentage of calli expressing GUS-positive spots, 6 weeks [4]: 50% and 90% | percentage of calli expressing GUS-positive spots, 8 weeks [4]: 90% and 80% | percentage of calli expressing GUS-positive spots, 11 days [4]: 90% | percentage of calli expressing GUS-positive spots, 4 days (no Agrobacterium (mock-inoculated), supplement in cocultivation medium M104 (100 μM AS and/or 0.5 g/l cas. acids)): 0% | percentage of calli expressing GUS-positive spots, 4 weeks [5]: 0% | percentage of calli expressing GUS-positive spots, 6 weeks [5]: 0% | percentage of calli expressing GUS-positive spots, 11 days [5]: 0%
